Assay [1] addresses succinate-ubiquinone redutase (SDH) of mitochondria from the 3884 strain (SDHB P225H substitution) (Botrytis cinerea, UniProt A0A384J5E4+D2IH01+D2IH03, P225H). Briefly: SDH activity of extracted mitochondria by DCPIP reduction at 595 nm, P225H mutant. The assay is classed as biochemical. The conditions noted are these: for IC50: mitochondria of 3884 strain, 20 min preincubation, -log 10 of concentration inhibiting DCPIP reduction by 50%, read-out: PI50 P225H3884 (converted); for Classification: pI50 on P225H 3884 mitochondria compared to WT. The arrangement: key to Classification: Classification A pI50 increase or stable compared to WT; Classification B pI50 decrease inferior or equal to 0.6 compared to WT; Classification C pI50 decrease superior to 0.6 compared to WT. As for the experimental part:
(§1) Compounds activity was investigated at the level of the mitochondrial target and compared to other SDH inhibitors.
(§2) Mitochondria were extracted according to Cramer et al. (1983) Analytical biochemistry, 128, 384-392 and the mycelium prepared according to Fritz et al., (1993). Agronomie 13, 225-230 except that spore's incubation was pursued for 48 hours. SDH activity was measured by following DCPIP (2,6-dichlorphenol-indophenol) reduction at 595 nm overtime. To test SDH inhibitors, mitochondria were incubated with test compounds for 20 min prior the initiation of the reaction.

Assay [2] deals with succinate-ubiquinone redutase (SDH) of mitochondria from Bo47 WT strain (Botrytis cinerea, UniProt A0A384J5E4+D2IH01+D2IH03). The assay can be described thus: SDH activity of extracted mitochondria by DCPIP reduction at 595 nm, wild type. The class given is biochemical. The conditions noted are these: PI50 Bo47 (Wild type), 20 min preincubation, -log 10 of concentration inhibiting DCPIP reduction by 50%. On the procedure:
as §1, §2

Assay [3] relates to Botrytis cinerea boscalid-resistant strains with SDHB_P225H, F substitutions. The assay can be described thus: Sensitivity assay in microtiter plate, resistance factor of boscalid-resistant field strains versus Bo47 WT. The class given is cell-based. On the procedure: Four to five strains with SDHB_P225H, F substitutions were retained for subsequent sensitivity assays in microtiter plate. IC50 of test compounds were determined and resistance factors (RF) calculated as the ratio of IC50 mutant/IC50 WT (Bo47). […] Strains giving a RF below 10 were considered sensitive, moderately resistant when RF was comprised between 10 and 50, resistant above 50.

Structures are written as SMILES. Where “and” joins values, the source holds several entries; their conditions need not be identical. Equal entries are not always repeated.

succinate-ubiquinone redutase (SDH) of mitochondria from Bo47 WT strain, sequence (A0A384K456 entry or part of it): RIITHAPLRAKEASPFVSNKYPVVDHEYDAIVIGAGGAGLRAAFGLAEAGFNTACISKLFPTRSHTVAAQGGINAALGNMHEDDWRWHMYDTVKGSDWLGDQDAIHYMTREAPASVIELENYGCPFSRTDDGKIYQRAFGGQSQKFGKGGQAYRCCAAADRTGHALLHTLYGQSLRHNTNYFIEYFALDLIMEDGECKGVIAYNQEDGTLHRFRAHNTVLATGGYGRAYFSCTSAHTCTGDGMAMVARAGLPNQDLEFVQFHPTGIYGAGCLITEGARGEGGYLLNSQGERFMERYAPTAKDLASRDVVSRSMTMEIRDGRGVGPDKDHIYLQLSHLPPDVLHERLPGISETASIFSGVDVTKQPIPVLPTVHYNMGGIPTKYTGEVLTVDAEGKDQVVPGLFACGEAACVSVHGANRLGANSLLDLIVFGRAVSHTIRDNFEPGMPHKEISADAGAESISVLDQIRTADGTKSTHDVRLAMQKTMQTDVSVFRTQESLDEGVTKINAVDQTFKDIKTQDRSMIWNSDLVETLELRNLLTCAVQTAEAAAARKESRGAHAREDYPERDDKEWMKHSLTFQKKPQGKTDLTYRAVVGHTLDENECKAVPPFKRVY
succinate-ubiquinone redutase (SDH) of mitochondria from Bo47 WT strain, sequence (D2IH03 entry or part of it): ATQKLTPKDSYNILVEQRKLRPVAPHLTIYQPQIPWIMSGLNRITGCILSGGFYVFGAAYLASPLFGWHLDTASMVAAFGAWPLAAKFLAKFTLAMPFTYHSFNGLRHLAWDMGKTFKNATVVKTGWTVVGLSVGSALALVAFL
succinate-ubiquinone redutase (SDH) of mitochondria from Bo47 WT strain, sequence (A0A384J5E4 entry or part of it): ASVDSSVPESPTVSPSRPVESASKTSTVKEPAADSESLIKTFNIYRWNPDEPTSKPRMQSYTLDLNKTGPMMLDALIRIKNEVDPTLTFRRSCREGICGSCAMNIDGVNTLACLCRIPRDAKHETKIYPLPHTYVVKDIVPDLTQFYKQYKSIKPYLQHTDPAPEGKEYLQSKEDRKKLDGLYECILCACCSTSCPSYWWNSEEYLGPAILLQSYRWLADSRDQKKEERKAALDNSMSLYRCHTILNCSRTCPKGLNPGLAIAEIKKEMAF
succinate-ubiquinone redutase (SDH) of mitochondria from Bo47 WT strain, sequence (D2IH01 entry or part of it): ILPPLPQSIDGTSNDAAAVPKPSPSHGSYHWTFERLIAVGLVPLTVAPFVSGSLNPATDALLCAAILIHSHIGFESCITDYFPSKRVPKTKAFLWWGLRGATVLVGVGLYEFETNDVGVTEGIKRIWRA
succinate-ubiquinone redutase (SDH) of mitochondria from the 3884 strain (SDHB P225H substitution), sequence (A0A384J5E4 30-300, stated change not applied): as the sequence (A0A384J5E4 entry or part of it) above
succinate-ubiquinone redutase (SDH) of mitochondria from the 3884 strain (SDHB P225H substitution), sequence (D2IH03 46-189, stated change not applied): as the sequence (D2IH03 entry or part of it) above
succinate-ubiquinone redutase (SDH) of mitochondria from the 3884 strain (SDHB P225H substitution), sequence (D2IH01 64-192, stated change not applied): as the sequence (D2IH01 entry or part of it) above
succinate-ubiquinone redutase (SDH) of mitochondria from the 3884 strain (SDHB P225H substitution), sequence (A0A384K456 34-647 partner): as the sequence (A0A384K456 entry or part of it) above

`O=C(Nc1ccccc1-c1ccc(Cl)cc1)c1cccnc1Cl` [Boscalid, reference compound]: in assay [1], the IC50 is 5010 nM and the Classification result is “C (Classification C pI50 decrease superior to 0.6 compared to WT)”. The IC50 in assay [2] is 39.8 nM.

On to `CC(C)c1ccccc1CN(C(=O)c1c(C(F)F)nn(C)c1F)C1CC1` [Compound A1, N-cyclopropyl-3-(difluoromethyl)-5-fluoro-N-(2-isopropylbenzyl)-1-methyl-1H-pyrazole-4-carboxamide], for which the values for the IC50 in assay [1] and in assay [2] were 3.16 nM and 12.6 nM, respectively. The Classification entry in assay [1] is “A”.

As to `Cn1nc(C(F)F)c(C(=O)N(Cc2ccccc2C2CC2)C2CC2)c1F` [Compound A2, N-cyclopropyl-N-(2-cyclopropylbenzyl)-3-(difluoromethyl)-5-fluoro-1-methyl-1H-pyrazole-4-carboxamide], in assay [1], the IC50 is 2.51 nM and the Classification result was “A”. The same compound gave an IC50 in assay [2] of 6.31 nM.

For `Cn1nc(C(F)F)c(C(=O)N(Cc2ccccc2C(C)(C)C)C2CC2)c1F` [Compound A3, N-(2-tert-butylbenzyl)-N-cyclopropyl-3-(difluoromethyl)-5-fluoro-1-methyl-1H-pyrazole-4-carboxamide], the “resistance factor (RF), ratio of IC50 mutant/IC50 WT (Bo47)” value was 1.8 in assay [3] (mutation P225F, BOTRCI strain 08BC1554); 1.2 in assay [3] (mutation P225F, BOTRCI strain 08BC1557); 2.2 in assay [3] (mutation P225F, BOTRCI strain 08BC1558); 1.0 in assay [3] (mutation P225F, BOTRCI strain 09BC2615); 0.9 in assay [3] (mutation P225H, BOTRCI strain 09BC2640); 1.0 in assay [3] (mutation P225H, BOTRCI strain 09BC2648). The “resistance factor (RF), ratio of IC50 mutant/IC50 WT (Bo47)” value is reported as 1.7 in assay [3] (mutation P225H, BOTRCI strain 09BC2649) and 1.1 in assay [3] (mutation P225H, BOTRCI strain 09BC2652).

Take `CC(C)c1ccc(Cl)cc1CN(C(=O)c1c(C(F)F)nn(C)c1F)C1CC1` [Compound A5, N-(5-chloro-2-isopropylbenzyl)-N-cyclopropyl-3-(difluoromethyl)-5-fluoro-1-methyl-1H-pyrazole-4-carboxamide]: in assay [1], the IC50 was 1.26 nM and the Classification entry is reported as “A”. The same compound had an IC50 in assay [2] of 6.31 nM.

As for `CCc1ccc(F)cc1CN(C(=O)c1c(C(F)F)nn(C)c1F)C1CC1` [Compound A6, N-cyclopropyl-3-(difluoromethyl)-N-(2-ethyl-5-fluorobenzyl)-5-fluoro-1-methyl-1H-pyrazole-4-carboxamide], in assay [1], the IC50 was 2.51 nM and the Classification entry is reported as “A”. In assay [2], this compound had an IC50 of 7.94 nM.

Turning to `CC(C)c1ccc(F)cc1CN(C(=O)c1c(C(F)F)nn(C)c1F)C1CC1` [Compound A7, N-cyclopropyl-3-(difluoromethyl)-5-fluoro-N-(5-fluoro-2-isopropylbenzyl)-1-methyl-1H-pyrazole-4-carboxamide], the IC50 was 1.58 nM in assay [1] and 3.98 nM in assay [2]. The Classification entry in assay [1] is given as “A”.

Take `Cn1nc(C(F)F)c(C(=O)N(Cc2cc(F)ccc2C2CC2)C2CC2)c1F` [Compound A8, N-cyclopropyl-N-(2-cyclopropyl-5-fluorobenzyl)-3-(difluoromethyl)-5-fluoro-1-methyl-1H-pyrazole-4-carboxamide]: in assay [1], the IC50 was 3.16 nM and the Classification entry is on record as “A”. Moreover, in assay [2], the IC50 is 7.94 nM.

On to `Cn1nc(C(F)F)c(C(=O)N(Cc2cc(F)ccc2C2CCCC2)C2CC2)c1F` [Compound A9, N-(2-cyclopentyl-5-fluorobenzyl)-N-cyclopropyl-3-(difluoromethyl)-5-fluoro-1-methyl-1H-pyrazole-4-carboxamide], for which, in assay [1], the IC50 is 3.16 nM and the Classification result is “A”. This compound showed an IC50 in assay [2] of 5.01 nM.

As for `CC(C)c1cccc(F)c1CN(C(=O)c1c(C(F)F)nn(C)c1F)C1CC1` [Compound A10, N-cyclopropyl-3-(difluoromethyl)-5-fluoro-N-(2-fluoro-6-isopropylbenzyl)-1-methyl-1H-pyrazole-4-carboxamide], the IC50 is 6.31 nM in assay [1] and 3.98 nM in assay [2]. In addition, the Classification entry in assay [1] was “B (Classification B pI50 decrease inferior or equal to 0.6 compared to WT)”.

Turning to `Cc1ccc(C(C)C)c(CN(C(=O)c2c(C(F)F)nn(C)c2F)C2CC2)c1` [Compound A12, N-cyclopropyl-3-(difluoromethyl)-5-fluoro-N-(2-isopropyl-5-methylbenzyl)-1-methyl-1H-pyrazole-4-carboxamide], in assay [1], the IC50 was 1 nM and the Classification entry is “A”. For the same compound, the IC50 in assay [2] was 3.98 nM.

`Cc1ccc(C(C)(C)C)c(CN(C(=O)c2c(C(F)F)nn(C)c2F)C2CC2)c1` [Compound A14, N-(2-tert-butyl-5-methylbenzyl)-N-cyclopropyl-3-(difluoromethyl)-5-fluoro-1-methyl-1H-pyrazole-4-carboxamide]: the IC50 in assay [1] is 3.16 nM; in assay [2], 5.01 nM. The Classification entry in assay [1] is reported as “A”.

As to `Cn1nc(C(F)F)c(C(=O)N(Cc2cc(Cl)ccc2C(F)(F)F)C2CC2)c1F` [Compound A15, N-[5-chloro-2-(trifluoromethyl)benzyl]-N-cyclopropyl-3-(difluoromethyl)-5-fluoro-1-methyl-1H-pyrazole-4-carboxamide], in assay [1], the IC50 was 6.31 nM and the Classification entry was “A”. For the same compound, the IC50 in assay [2] is 15.8 nM.

For `Cc1ccc(C(F)(F)F)c(CN(C(=O)c2c(C(F)F)nn(C)c2F)C2CC2)c1` [Compound A16, N-cyclopropyl-3-(difluoromethyl)-5-fluoro-1-methyl-N-[5-methyl-2-(trifluoromethyl)benzyl]-1H-pyrazole-4-carboxamide], the IC50 was 5.01 nM in assay [1] and 20 nM in assay [2]. For the same compound, the Classification entry in assay [1] is listed as “A”.

For `Cn1nc(C(F)F)c(C(=O)N(Cc2c(Cl)cccc2C(F)(F)F)C2CC2)c1F` [Compound A17, N-[2-chloro-6-(trifluoromethyl)benzyl]-N-cyclopropyl-3-(difluoromethyl)-5-fluoro-1-methyl-1H-pyrazole-4-carboxamide], in assay [1], the IC50 is 3.16 nM and the Classification entry is given as “A”. For the same compound, the IC50 in assay [2] was 10 nM.

With `Cn1nc(C(F)F)c(C(=O)N(Cc2c(C(F)(F)F)ccc(Cl)c2F)C2CC2)c1F` [Compound A18, N-[3-chloro-2-fluoro-6-(trifluoromethyl)benzyl]-N-cyclopropyl-3-(difluoromethyl)-5-fluoro-1-methyl-1H-pyrazole-4-carboxamide], in assay [1], the IC50 was 6.31 nM and the Classification result is on record as “A”. Besides, the “activity on strains with P225 substitutions compared with wild type strain” value in assay [3] (strains with P225 substitutions vs wild type) is reported as “always more active on strains with P225 substitutions than on wild type strain”. Further, the IC50 in assay [2] was 15.8 nM.

For the compound `CC(C)c1ccccc1CN(C(=S)c1c(C(F)F)nn(C)c1F)C1CC1` [Compound A20, N-cyclopropyl-3-(difluoromethyl)-5-fluoro-N-(2-isopropylbenzyl)-1-methyl-1H-pyrazole-4-carbothioamide], the IC50 was 31.6 nM in assay [1] and 631 nM in assay [2]. For the same compound, the Classification result in assay [1] is “A”.

For the compound `CCc1ccccc1CN(C(=O)c1c(C(F)F)nn(C)c1F)C1CC1` [Compound A21, N-cyclopropyl-3-(difluoromethyl)-N-(2-ethylbenzyl)-5-fluoro-1-methyl-1H-pyrazole-4-carboxamide], in assay [1], the IC50 is 2.51 nM and the Classification result was “A”. In assay [2], the IC50 was 10 nM and 31.6 nM.

With `Cn1nc(C(F)F)c(C(=O)N(Cc2ccccc2[Si](C)(C)C)C2CC2)c1F` [Compound A22, N-cyclopropyl-3-(difluoromethyl)-5-fluoro-1-methyl-N-[2-(trimethylsilyl)benzyl]-1H-pyrazole-4-carboxamide], in assay [1], the IC50 was 3.16 nM and the Classification result was “A”. This compound gave an IC50 in assay [2] of 3.98 nM.

As to `CC(C)CC(C)c1sccc1NC(=O)c1cn(C)nc1C(F)(F)F` (stereo not drawn) [Penthiopyrad, reference compound], in assay [1], the IC50 is 501 nM and the Classification result was “C (Classification C pI50 decrease superior to 0.6 compared to WT)”. Also, in assay [2], the IC50 was 15.8 nM.

(Values after patent US9668480B2, “Method for treating plants against fungi resistant to fungicides using carboxamide or thiocarboxamide derivatives” (priority 2012, dated 2017).)
